Reference: PubChem BioAssay AID1963976 (Molecular Pharmacology Branch, DTP, NCI, 2024)

Tested on: 435261-313-R-J1-PDC tumor spheroid viability
Assay: Anticancer human tumor 435261-313-R-J1-PDC patient-derived colon adenocarcinoma cell line growth inhibition [PI3K]
Settings: spheroids with HUVEC and MSC; for IC50: curve of first compound; for viability, T/C: stronger effect = lower value
Method in brief: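 Tumor cells grown as multi-cell spheroids with HUVEC endothelial cells and MSC fibroblast-like stroma were treated with targeted agents combined with inavolisib, alpelisib, duvelisib or copanlisib. Doses fell in half-log steps from near clinical Cmax, else from 10 microM. Viability was measured.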
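Also: spheroids exposed to compounds for 7 days.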

Which IC50 (second compound 0.0316 µM) does the source give for `CC1(C)CCC(Nc2ncc(C(F)(F)F)c(-c3c[nH]c4c(P(C)(C)=O)c(C#N)ccc34)n2)CN1` (configuration not stated) + CC(Nc1ncnc2nc[nH]c12)c1cc2cccc(Cl)c2c(=O)n1-c1ccccc1 here?
The IC50 was 2.55 µM.

And the IC50 (second compound 0.1 µM)?
The IC50 was 1.92 µM.

What about the IC50 (second compound 0.316 µM) of the same compound?
Its IC50 is 1.47 µM.

And the IC50 (second compound 1 µM)?
Its IC50 is 1.55 µM.

What about the IC50 (second compound 3.16 µM) of the same compound?
The IC50 was less than 0.0316 µM.

And the IC50 (second compound 10 µM)?
Its IC50 is less than 0.0316 µM.

What about the viability, T/C (second compound 0.0316 µM, first compound 0.0316 µM) of the same compound?
The viability, T/C was 61.1%.

And the viability, T/C (second compound 0.0316 µM, first compound 0.1 µM)?
The viability, T/C was 52.4%.

And the viability, T/C (second compound 0.0316 µM, first compound 0.316 µM)?
The viability, T/C was 61.4%.

And the viability, T/C (second compound 0.0316 µM, first compound 1 µM)?
Its viability, T/C is 61.4%.

What about the viability, T/C (second compound 0.0316 µM, first compound 3.16 µM) of the same compound?
Its viability, T/C is 48%.

What about the viability, T/C (second compound 0.0316 µM, first compound 10 µM) of the same compound?
Its viability, T/C is 1.46%.

And the viability, T/C (second compound 0.1 µM, first compound 0.0316 µM)?
The viability, T/C was 70.5%.

What about the viability, T/C (second compound 0.1 µM, first compound 0.1 µM) of the same compound?
Its viability, T/C is 60.4%.

What about the viability, T/C (second compound 0.1 µM, first compound 0.316 µM) of the same compound?
The viability, T/C was 53.4%.

What about the viability, T/C (second compound 0.1 µM, first compound 1 µM) of the same compound?
The viability, T/C was 60.6%.

And the viability, T/C (second compound 0.1 µM, first compound 3.16 µM)?
Its viability, T/C is 44.4%.

What about the viability, T/C (second compound 0.1 µM, first compound 10 µM) of the same compound?
Its viability, T/C is 2.25%.

And the viability, T/C (second compound 0.316 µM, first compound 0.0316 µM)?
Its viability, T/C is 56.9%.

What about the viability, T/C (second compound 0.316 µM, first compound 0.1 µM) of the same compound?
The viability, T/C was 57.8%.

And the viability, T/C (second compound 0.316 µM, first compound 0.316 µM)?
The viability, T/C was 58.2%.

And the viability, T/C (second compound 0.316 µM, first compound 1 µM)?
The viability, T/C was 50.9%.

What about the viability, T/C (second compound 0.316 µM, first compound 3.16 µM) of the same compound?
Its viability, T/C is 43.5%.

And the viability, T/C (second compound 0.316 µM, first compound 10 µM)?
Its viability, T/C is 0.98%.

And the viability, T/C (second compound 1 µM, first compound 0.0316 µM)?
Its viability, T/C is 50.5%.

What about the viability, T/C (second compound 1 µM, first compound 0.1 µM) of the same compound?
The viability, T/C was 52.1%.

And the viability, T/C (second compound 1 µM, first compound 0.316 µM)?
The viability, T/C was 57.2%.

What about the viability, T/C (second compound 1 µM, first compound 1 µM) of the same compound?
Its viability, T/C is 57%.

What about the viability, T/C (second compound 1 µM, first compound 3.16 µM) of the same compound?
The viability, T/C was 44.3%.

And the viability, T/C (second compound 1 µM, first compound 10 µM)?
The viability, T/C was 1.03%.

And the viability, T/C (second compound 3.16 µM, first compound 0.0316 µM)?
Its viability, T/C is 37.3%.

What about the viability, T/C (second compound 3.16 µM, first compound 0.1 µM) of the same compound?
Its viability, T/C is 42.8%.

What about the viability, T/C (second compound 3.16 µM, first compound 0.316 µM) of the same compound?
The viability, T/C was 44%.

And the viability, T/C (second compound 3.16 µM, first compound 1 µM)?
The viability, T/C was 47.8%.

And the viability, T/C (second compound 3.16 µM, first compound 3.16 µM)?
The viability, T/C was 36.9%.

What about the viability, T/C (second compound 3.16 µM, first compound 10 µM) of the same compound?
The viability, T/C was 0.77%.

And the viability, T/C (second compound 10 µM, first compound 0.0316 µM)?
Its viability, T/C is 33.6%.

What about the viability, T/C (second compound 10 µM, first compound 0.1 µM) of the same compound?
Its viability, T/C is 27.4%.

What about the viability, T/C (second compound 10 µM, first compound 0.316 µM) of the same compound?
Its viability, T/C is 27.7%.

And the viability, T/C (second compound 10 µM, first compound 1 µM)?
The viability, T/C was 31.1%.

And the viability, T/C (second compound 10 µM, first compound 3.16 µM)?
The viability, T/C was 22.3%.

What about the viability, T/C (second compound 10 µM, first compound 10 µM) of the same compound?
Its viability, T/C is 1.14%.
